Test: mn = molality of the nth substance listed, in mol/kg
Conditions: 101 kPa, Liquid, Optical method

Row | binary diffusion coefficient (298.15 K, m1 = 0.342) [m2/s] | binary diffusion coefficient (288.15 K, m1 = 0.023) [m2/s] | binary diffusion coefficient (288.15 K, m1 = 0.071) [m2/s] | binary diffusion coefficient (288.15 K, m1 = 0.119) [m2/s] | binary diffusion coefficient (293.15 K, m1 = 0.023) [m2/s] | binary diffusion coefficient (293.15 K, m1 = 0.071) [m2/s] | binary diffusion coefficient (293.15 K, m1 = 0.119) [m2/s] | binary diffusion coefficient (298.15 K, m1 = 0.023) [m2/s] | binary diffusion coefficient (298.15 K, m1 = 0.071) [m2/s] | binary diffusion coefficient (298.15 K, m1 = 0.119) [m2/s] | binary diffusion coefficient (303.15 K, m1 = 0.023) [m2/s] | binary diffusion coefficient (303.15 K, m1 = 0.071) [m2/s] | binary diffusion coefficient (303.15 K, m1 = 0.119) [m2/s] | binary diffusion coefficient (308.15 K, m1 = 0.023) [m2/s] | binary diffusion coefficient (308.15 K, m1 = 0.071) [m2/s] | binary diffusion coefficient (308.15 K, m1 = 0.119) [m2/s] | binary diffusion coefficient (313.15 K, m1 = 0.023) [m2/s] | binary diffusion coefficient (313.15 K, m1 = 0.071) [m2/s] | binary diffusion coefficient (313.15 K, m1 = 0.119) [m2/s] | Compound
1 | 1.81e-09 | – | – | – | – | – | – | – | – | – | – | – | – | – | – | – | – | – | – | [Cl-].[K+] [potassium chloride] + O
2 | – | 9.16e-10 | 6.72e-10 | 8.56e-10 | 1.11e-09 | 8.44e-10 | 1.04e-09 | 1.32e-09 | 1.06e-09 | 1.26e-09 | 1.54e-09 | 1.32e-09 | 1.47e-09 | 1.79e-09 | 1.59e-09 | 1.71e-09 | 2.07e-09 | 1.92e-09 | 1.99e-09 | CN1c2ccccc2Sc2ccccc21 [10-methylphenothiazine] + COC(=O)OC

Source: the NIST ThermoML archive (doi:10.1016/j.tca.2017.08.010)
